One series concerns murine integrin α4. Briefly: Antisense inhibition of murine integrin α4 protein expression in IC-21 macrophage cells (flow cytometry, CD49d-PE). The series is classed as cell-based, mouse. As to conditions: Table 11, IC-21 cells, 25 nM, triplicates. The procedure: Murine IC-21 macrophage cells (American Type Culture Collection, Manassas, Va.) were used for further study. Additional oligonucleotides were designed to target murine integrin α4. These are shown in Table 10; all 2' MOE nucleotides are shown in bold and remaining positions are 2' deoxy. All 2'-MOE cytosines in these compounds are 5' methylcytosines. IC-21 cells were seeded at 5×10^4 cell/well plates two days before assay. […] Wells were triplicates.
Cells (triplicates) were seeded at 2.5×10^4 cells/well in 24-well plates the day before treatment. Oligonucleotide concentrations were 0.2, 1, 5, 25 and 50 nM in 3 ug/ml LIPOFECTIN. Cells were harvested with 2 mM EDTA for 4 minutes, then 1 ml of 2% BSA, 0.2% azide was added per contents of each well.
IC-21 cells were treated with 0.3, 1, 3, 10 and 30 nM oligonucleotide with 3 ug/ml LIPOFECTIN for 4 hours. Cells were incubated for 24 hours, harvested with trypsin, stained with 2 ug/ml CD49d-PE and rat IgG2B as in previous examples.
These compounds were tested for ability to inhibit integrin α4 protein expression.
(Flow cytometry measures light scatter and fluorescence of single cells or particles in a stream.)

A further series has as its system human integrin α4. Kind of series: Inhibition of human integrin α4 protein levels by antisense oligonucleotides (LIPOFECTIN, flow cytometry with CD49d-FITC) in A375 melanoma cells. The series is classed as cell-based. The arrangement: % Inhib.: tested at 200 nM. As to conditions: for % Control (integrin α4 protein) / % Inhib (integrin α4 protein): Table 1, 200 nM oligonucleotide, 6 ug/ml LIPOFECTIN; for inhibition (Example 11): Example 11 assay, dose not stated; for % CONTROL 48 hr / % INHIB 48 hr / % CONTROL 72 hr / % INHIB 72 HR: Table 2, A375. From the text: Integrin α4 protein levels can be quantitated in a variety of ways well known in the art, such as immunoprecipitation, Western blot analysis (immunoblotting), ELISA or fluorescence-activated cell sorting (FACS). Antibodies directed to integrin α4 can be identified and obtained from a variety of sources, such as the MSRS catalog of antibodies (Aerie Corporation, Birmingham, Mich.), or can be prepared via conventional antibody generation methods.
Target sites are indicated by nucleotide numbers, as given in the sequence source reference (GenBank accession no. L12002), to which the oligonucleotide binds. All compounds in Table 1 are 18 nucleotides in length, with a phosphorothioate backbone and a centered 10-base deoxynucleotide gap flanked by 2'-methoxyethoxy (2'MOE) wings. Human A375 melanoma cells (American Type Culture Collection, Manassas, Va.) were plated at 2000 cells/cm^2 two days before oligonucleotide treatment. Cells were treated with oligonucleotides at a dose of 200 nM oligonucleotide and 6 ug/ml LIPOFECTIN for four hours. Cells were incubated overnight and harvested with 2 mM EDTA in PBS. Cells were washed in 2% bovine serum albumin, 0.2% sodium azide in D-PBS at 4° C. Cells were centrifuged at 200×g, and the supernatant was decanted. […] Antibodies were incubated with the cells for 30 minutes at 4° C. in the dark, under gentle agitation. Cells were washed again as above and then resuspended in 0.3 ml of FacsFlow buffer with 0.5% formaldehyde. Cells were analyzed on Becton Dickinson FACScan. Results are expressed as percentage of control expression based on mean fluorescence intensity.
Cells were harvested with trypsin at 48 and 72 hours after oligonucleotide treatment and stained with 2 ug/ml CD49d-FITC as in the previous example.
Where backbones are mixed, linkages are shown as "s" for phosphorothioate (P=S or PS) and "o" for phosphodiester (P=O or PO). Where target region is indicated as `M62841,` oligonucleotides are targeted to the promotor region whose sequence is described in GenBank Accession No. M62841. Remaining oligonucleotides are targeted to the sequence described in Genbank Accession No. L12002 and their target sites on the L12002 sequence are indicated.
Target sites refer to nucleotide numbers on the target sequence (GenBank Accession No. L12002) to which the oligonucleotides hybridize.
Oligonucleotides were synthesized as "gapmers" consisting of a 9-nucleotide region of deoxynucleotides flanked by three 2'-O-methoxyethyl(2'-MOE) nucleotides on the 5' end and eight 2'-MOE nucleotides on the 3' end. 2'-MOE nucleotides are shown in bold in the table. Oligonucleotides were synthesized with phosphorothioate backbones throughout, and all cytosines are 5-methylcytosines.

[1] abbreviates: Table 24, A375 cells, lipofectin, as Example 8.

Values joined by “and” are separate entries in the source; they are usually repeats but may differ in a detail not shown here. Identical values can stand only once.

Consider “16429 (antisense GGCCACTGACCAGAGTTGCA; phosphorothioate, 2'-MOE/deoxy gapmer, further chemistry not given here) [compound 16429]”, for which, in the series with murine integrin α4, the “% Control (integrin α4 protein)” value came to 60% and the “% Inhib (integrin α4 protein)” value was 40%.
As to “16436 (CACCTCGCTTCCGCAGCCAT; phosphorothioate, 2'-MOE/deoxy, further chemistry not given here) [compound 16436]”, the “% Control (integrin α4 protein)” value in the series with murine integrin α4 worked out at 47%. In the series on murine integrin α4 (0.025 µM), the “% Inhib (integrin α4 protein)” value is 53% and > 50%.
“24461 (CCACAGCACAGACAGAAG; chemistry not given here) [compound 24461]”: in the series with human integrin α4 (A375 cells), the “% Control (integrin α4 protein)” value came to 69% and the “% Inhib (integrin α4 protein)” value is recorded as 31%.
In the case of “24477 (TCCATTCTCTCAATTTGA; chemistry not given here) [compound 24477]”, in the series with human integrin α4, the “inhibition (Example 11)” value is ≥ 40%. In addition, the “% Control (integrin α4 protein)” value in the series on human integrin α4 (A375 cells) was 43%. The “% CONTROL 48 hr” value in the series on human integrin α4 (50 nM) was 56%; in the series on human integrin α4 (100 nM), 47%; in the series with human integrin α4 (200 nM), 34%; with human integrin α4 (400 nM), 35%. Besides, the “% INHIB 48 hr” value was 44% in the series with human integrin α4 (50 nM), 53% with human integrin α4 (100 nM), 66% with human integrin α4 (200 nM) and 65% in the series with human integrin α4 (400 nM). For the same substance, the “% CONTROL 72 hr” value in the series on human integrin α4 (50 nM) is 72%; in the series with human integrin α4 (100 nM), 67%; in the series on human integrin α4 (200 nM) it was 44%; in the series on human integrin α4 (400 nM), 53%. Moreover, the “% INHIB 72 HR” value with human integrin α4 (50 nM) is 28%; in the series with human integrin α4 (100 nM), 33%; with human integrin α4 (200 nM) it was 56%; in the series with human integrin α4 (400 nM) it was 47%. Further, the “% Control” value in the series on human integrin α4 (Table 6, 10 nM) was found to be 83%; with human integrin α4 (Table 6, 30 nM), 80%; in the series on human integrin α4 (Table 6, 100 nM) it was 63%; with human integrin α4 (Table 6, 300 nM), 33%. For the same substance, the “% Inhib.” value in the series with human integrin α4 (Table 6, 10 nM) is reported as 17%; in the series on human integrin α4 (Table 6, 30 nM) it was 20%; in the series with human integrin α4 (Table 6, 100 nM), 37%; with human integrin α4 (Table 6, 300 nM (highest dose)), 67%.
For the substance “24739 (TTTAGTGACAAAGACGTTAT; phosphorothioate deoxy, further chemistry not given here) [compound 24739]”, the “% Control” value is 69% in the series on human integrin α4 (Table 4, 10 nM); 67% with human integrin α4 (Table 4, 30 nM); 121% in the series with human integrin α4 (Table 4, 100 nM); 107% with human integrin α4 (Table 4, 300 nM). In addition, the “% Inhib.” value in the series with human integrin α4 (Table 4, 10 nM) amounted to 31%; in the series with human integrin α4 (Table 4, 30 nM) it was 33%.
On to “107236 (antisense GCCTCGCTTCCCAAGCCATG; chemistry not given here) [compound 107236]”, for which, in the series on human integrin α4 (setting [1]), the “% Control” value is 43%.
With “24742 (TTTAGTGACAAAGACGTTAT; phosphorothioate, 2'-MOE, 5-methyl-C, further chemistry not given here) [compound 24742]”, the “% Control” value came out at 112% in the series with human integrin α4 (Table 4, 10 nM); 107% in the series with human integrin α4 (Table 4, 30 nM); 123% in the series on human integrin α4 (Table 4, 100 nM); 128% with human integrin α4 (Table 4, 300 nM).
For “107241 (antisense GATACTGAGGTCCTCTTCCG; chemistry not given here) [compound 107241]”, in the series with human integrin α4 (setting [1]), the “% Control” value amounted to 36%.
As for “107232 (antisense CCGGTTTCTGCCGCCGAGCC; chemistry not given here) [compound 107232]”, in the series with human integrin α4 (setting [1]), the “% Control” value is listed as 83% and the “% Inhib.” value is given as 17%.
As for “107253 (antisense TCTTTGGCTGTATTATTACC; chemistry not given here) [compound 107253]”, the “% Control” value in the series on human integrin α4 (setting [1]) was determined as 29%.
For “107231 (antisense GTGCGGAGGCGCAGGGCCGG; chemistry not given here) [compound 107231]”, in the series on human integrin α4 (setting [1]), the “% Control” value is on record as 115%.
Regarding “107250 (antisense GAGTAAAAGAAGTCCAAACA; chemistry not given here) [compound 107250]”, in the series on human integrin α4 (setting [1]), the “% Control” value is given as 57% and the “% Inhib.” value was found to be 43%.
On to “107260 (antisense TTTGCCAGTTTGGCCTATAA; chemistry not given here) [compound 107260]”, for which, in the series on human integrin α4 (setting [1]), the “% Control” value is 50%.
Consider “100025 (antisense CCCAGCACATCGGCTCTCGG; chemistry not given here) [compound 100025]”, for which, in the series on human integrin α4 (setting [1]), the “% Control” value is recorded as 97% and the “% Inhib.” value amounted to 3%.
Regarding “107254 (antisense TGCTTTAGTGTTTCTCTACC; chemistry not given here) [compound 107254]”, the “% Control” value with human integrin α4 (setting [1]) was 33%.
With “24443 (CAAAGTTGCACGGGATGC; chemistry not given here) [compound 24443]”, in the series on human integrin α4 (A375 cells), the “% Control (integrin α4 protein)” value amounted to 63% and the “% Inhib (integrin α4 protein)” value is 37%.
Consider “107239 (antisense ACTTCCTTGCCCTTATATGA; chemistry not given here) [compound 107239]”, for which the “% Control” value in the series on human integrin α4 (setting [1]) is 29%.
As for “26640 (CCACTGATTGTCTCTCTCTT; phosphorothioate, 2'-MOE/deoxy, further chemistry not given here) [compound 26640]”, the “inhibition (Example 11)” value in the series on human integrin α4 is recorded as ≥ 40%. The “% Control” value in the series with human integrin α4 (Table 6, 10 nM) is 91%; in the series with human integrin α4 (Table 6, 30 nM), 83%; in the series on human integrin α4 (Table 6, 100 nM), 62%; in the series with human integrin α4 (Table 6, 300 nM), 35%. For the same substance, the “% Inhib.” value with human integrin α4 (Table 6, 30 nM) stood at 17%; in the series with human integrin α4 (Table 6, 100 nM) it was 38%; with human integrin α4 (Table 6, 300 nM (highest dose)), 65%.
Take “107256 (antisense GAGGCAAGCACATATGGTAA; chemistry not given here) [compound 107256]”: in the series on human integrin α4 (setting [1]), the “% Control” value was found to be 45%.
As for “24451 (CCACTGATTGTCTCTCTC; chemistry not given here) [compound 24451]”, the “inhibition (Example 11)” value in the series on human integrin α4 is recorded as ≥ 40%. The “% Control (integrin α4 protein)” value in the series on human integrin α4 (A375 cells) is on record as 51%. Further, the “% CONTROL 48 hr” value amounted to 63% with human integrin α4 (50 nM), 44% with human integrin α4 (100 nM), 34% in the series on human integrin α4 (200 nM) and 44% with human integrin α4 (400 nM). In addition, the “% INHIB 48 hr” value in the series with human integrin α4 (50 nM) is given as 37%; in the series on human integrin α4 (100 nM), 56%; in the series on human integrin α4 (200 nM), 66%; in the series on human integrin α4 (400 nM), 56%. Also, the “% Control” value with human integrin α4 (Table 6, 10 nM) is on record as 96%; in the series with human integrin α4 (Table 6, 30 nM), 77%; with human integrin α4 (Table 6, 100 nM) it was 66%; in the series with human integrin α4 (Table 6, 300 nM), 35%. Besides, the “% Inhib.” value in the series with human integrin α4 (Table 6, 30 nM) was found to be 23%; in the series on human integrin α4 (Table 6, 100 nM) it was 34%; with human integrin α4 (Table 6, 300 nM (highest dose)) it was 65%.
With “24474 (ATCCATTTTCAACACAGT; chemistry not given here) [compound 24474]”, in the series with human integrin α4 (A375 cells), the “% Control (integrin α4 protein)” value amounted to 71% and the “% Inhib (integrin α4 protein)” value amounted to 29%.
For “24476 (CAATTTGAAAGAAGTCCT; chemistry not given here) [compound 24476]”, in the series with human integrin α4 (A375 cells), the “% Control (integrin α4 protein)” value was found to be 99%.
On to “24471 (ACCGAAAAGCACCAACTG; chemistry not given here) [compound 24471]”, for which, in the series on human integrin α4 (A375 cells), the “% Control (integrin α4 protein)” value was 80% and the “% Inhib (integrin α4 protein)” value was 20%.
As for “24445 (CCCGGGTTCGCGCCTCGC; chemistry not given here) [compound 24445]”, in the series with human integrin α4 (A375 cells), the “% Control (integrin α4 protein)” value stood at 73% and the “% Inhib (integrin α4 protein)” value came to 27%.
